In paper PMC12344774, “Ferrocenyl Quinoline-Benzimidazole Hybrids: A Multistage Strategy to Combat Drug-Resistant Malaria” (Inorganic Chemistry, 2025):
Where two headings read alike, the source gives them in different places.

Tests used:
K1 = details: previous study; ref Baartzes et al.; read-out: PfIC50 (K1); cited from earlier work
CHO cell line [1] = system: CHO cell line
Protocol: (§1) The samples were tested over 48 h against the Chinese hamster ovarian (CHO) cell line to determine general cytotoxicity. […] Quantitative assessment of toxic activity in vitro was determined via the MTT assay using the method described. Cell viability was determined colorimetrically using the breakdown of a dye by enzymes of the electron transport chain, taking place in the mitochondria of metabolically active living cells, as a marker for survival.
(§2) Compounds were tested in triplicate on a single occasion against these cells using the MTT assay. The test samples were prepared to a 10 mM stock solution, in 100% DMSO, and stored at −20 °C until use. Samples were tested as a suspension if not completely dissolved. Further dilutions to the desired starting concentration were freshly prepared in growth media at the start of the experiment.
(§3) Cells were plated to a density of 10^5 cells/well in 96-well plates and allowed to attach for 24 h. […] After 44 h MTT was added, and the plates were read 4 h later at 540 nm on a spectrophotometer following the addition of 100 μL of DMSO and gentle plate-shaking to solubilize and visualize the dye. Survival was plotted against concentration, and the IC50 values were obtained using a nonlinear dose–response curve fitting analysis via the Dotmatics software platform.

rodent mouse model = system: rodent mouse model; design: method as in Baartzes et al.; details: in vivo, no mice were cured; ref Baartzes et al.; cited from earlier work
[2] = Cyclic voltammetry of the ferrocene/ferrocenium couple; assay type: physicochemical; details: for Reversibility of the ferrocene/ferrocenium couple: DCM/0.1 M TBAP system
Protocol: It has been proposed that the oxidation of ferrocene (Fe(C5H5)2) to the ferrocenium cation (Fe(C5H5)2 ^+) is a reversible one-electron transfer process. […] This prompted the investigation into the electrochemical properties of the Fe(C5H5)2/Fe(C5H5)2 ^+ couple in complexes C1–C5, using cyclic voltammetry. FQ was used as the reference, as it is considered the benchmark for all newly developed ferrocenyl-based antiplasmodials.
Nuclear magnetic resonance (NMR) spectra were recorded on a Bruker XR600 MHz spectrometer (^1H at 599.95 MHz and ^13C{^1H} at 151.0 MHz), a Bruker […] (^1H at 400.22 MHz and ^13C{^1H} at 100.65 MHz), or a Varian Mercury 300 (^1H at 300.08 MHz) spectrometer. These were equipped with a Bruker Biospin GmbH casing and sample injector at 30 °C and tetramethylsilane (TMS) was used as the internal standard. Coupling constants are reported in Hz and chemical shifts are reported in ppm relative to residual solvent signals. Infrared (IR) spectroscopy was performed on a PerkinElmer Spectrum 100 FT-IR spectrometer, using attenuated total reflectance (ATR), with vibrations measured in units of cm^–1. Cyclic voltammetric measurements were carried out at ambient temperature under an inert argon atmosphere using a three-electrode system on a BASi Epsilon Eclipse potentiostat/galvanostat electrochemical workstation. The C-3 cell stand, equipped with a glassy carbon working electrode, Ag/AgCl (saturated NaCl) reference electrode, and a Pt wire auxiliary electrode were used to carry out electrochemical measurements. All experiments were carried out in anhydrous dichloromethane containing 0.10 M tetra-n-butylammonium perchlorate (TBAP) as the supporting electrolyte.

[3] = system: whole-cell NF54 parasites
Protocol: However, unlike the cell-free assay, the heme fractionation assay isolates both the heme and Hz components via a series of solubilization and separation steps. Furthermore, the absolute amount of each heme species per cell is calculated using the UV–vis data normalized to the flow cytometry parasite cell count.
The IC50 was previously determined using the pLDH assay. Following incubation for 28–32 h, to ensure progression to the trophozoite stage, parasitized red blood cells were saponin lysed to obtain isolated trophozoites. To determine the amount of heme and hemozoin, the trophozoites were then exposed to a series of cellular fractionation steps to successively liberate each heme species. The UV–visible spectra of these fractions were recorded between 400 and 415 nm on a multiwell plate reader. The percentage of each heme species was determined from the absorbance value of the Soret band of the pyridyl heme complex. To determine the absolute levels of each species, an aliquot of the isolated trophozoites was spiked with Trucount beads and stained with SYBR Green. These were run on a flow cytometer to determine absolute counts, which could in turn be used to calculate the absolute levels of each species per cell. The total heme in each of these samples was quantified using a standard curve. GraphPad Prism (v5) was used to analyze the final data set and perform the significance tests.

CHO cell line [4] = assay: Cytotoxicity, MTT assay
Protocol: as §1, §2, §3

[5] = scan rate 100 mV/s, CH2Cl2, 0.1 M TBAP
[6] = vs Ag/AgCl, scan rate 100 mV/s, CH2Cl2, 0.1 M TBAP

Structure (SMILES) | IC50 (K1) [µM] | CC50 (CHO cell line [1]) [µM] | Reduction in parasitemia (rodent mouse model) [%] | Reversibility of the ferrocene/ferrocenium couple [2] | Ipc/Ipa [2, 5] | ΔE [2, 5] [V] | Anodic peak potential Epa [2, 6] [V] | Cathodic peak potential Epc [2, 6] [V] | Half-wave potential E1/2 [2, 6] [V] | Hemozoin (Hz) Fe level per cell versus untreated control ([3]; NF54 parasites at 3× IC50) | Free heme level per cell ([3]; NF54 parasites, 0.5–1.5× the IC50 value) | CC50 (CHO cell line [4]; read-out: CC50 (CHO) ± SEM, MTT, 48 h, technical triplicate on a single occasion) [µM] | SI (CC50 CHO/IC50 NF54) (CHO cell line [4]; selectivity index)
Cc1ccc2c(c1)nc(-[c-]1cccc1)n2CCCNc1ccnc2cc(Cl)ccc12.[Fe+2].c1cc[cH-]c1 [Complex C1, 7-chloro-N-(3-(5-(methyl)-2-ferrocenyl-1H-benzo[d]imidazole-1-yl)propyl)quinolin-4-amine] | 0.283 | 43.7 ± 2.5 | 92 | chemically and electrochemically reversible | 1.04 | 0.127 | 0.638 | 0.510 | 0.574 | – | – | – | –
Cc1ccc2c(c1)nc(-[c-]1cccc1CN(C)C)n2CCCNc1ccnc2cc(Cl)ccc12.[Fe+2].c1cc[cH-]c1 (stereo not drawn) [Complex C3, 7-Chloro-N-(3-(5-methyl-2-(2-N,N-dimethylaminomethyl)ferrocenyl-1H-benzo[d]-imidazole-1-yl)propyl) Quinoline-4-amine] | – | – | – | chemically and electrochemically irreversible | – | – | 0.678 | – | – | more than five times lower | steadily increased | 6.1 ± 1.2 | 244.4
